# Data as given in the supplement of paper PMC8837787.
# Test system: Saccharomyces cerevisiae ABC16-Green Monster
# Experiment: growth inhibition at single dose (up to 150 µM), below the 70% cut-off for dose-response; higher = more potent
# Conditions: 18 h; 30 °C; YPD
# How it was run: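 The entry is percent growth inhibition of drug-sensitive S. cerevisiae ABC16-Green Monster cells. After overnight growth in YPD at 30 °C, cells were diluted to OD600 0.1–0.2 and exposed to each library compound at 150 µM in 200 µl per well, in biological duplicates with untreated cultures beside them, and OD600 was read at 0 h and after 18 h at 30 °C. Any compound under 70% in both replicates was not carried to dose-response.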
row,SMILES,growth inhibition at single dose [%]
1,Cc1ccc2[nH]c3c(NCCN(C)C)ncnc3c2c1,< 70
2,CC(=O)NCCc1nc2ccccc2n1Cc1ccc(C(C)C)cc1,< 70
3,CNc1nc(-c2[nH]c(C)c(C(=O)OC)c2C)cs1,< 70
4,O=C(NC1CCN(c2ccc(S(=O)(=O)C(F)(F)F)cc2)CC1)C1CC1,< 70
5,CC(C(=O)N1CCCC1)N1CCN(S(=O)(=O)c2ccc(C(C)(C)C)cc2)CC1 (centres undefined),< 70
6,Cc1ccc(/C=C/C(=O)NC2=NCCS2)c(Br)c1,< 70
7,CCOC(=O)c1cc(-c2csc(Nc3c(C)cc(C)cc3C)n2)on1,< 70
8,COc1ccc(S(=O)(=O)N2CCSc3cc(Cl)ccc32)cc1,< 70
9,c1ccc(SCc2ccc(-c3nc4ccccc4s3)cc2)nc1,< 70
10,COc1cc(Br)cc2cc(C(=O)Nc3cccc(C(F)(F)F)c3)c(=O)oc12,< 70
11,CCN(CC)C(=O)N1CCN(C)CC1 [Diethylcarbamazine],< 70
12,C=CCn1c(SCc2c(C)noc2C)nc2scc(C3CC3)c2c1=O,< 70
13,CCOc1ccccc1C(=O)Nc1cccc(-c2nc3ncccn3c2C)c1,< 70
14,Cc1cccc(C(=O)Nc2ccnc(N(C)C3CCN(CC(C)C)CC3)c2)c1,< 70
15,COCC(C)n1c(C)cc(C(=O)CSc2ccc(NC(C)=O)cc2)c1C (centres undefined),< 70
16,CCc1nc2ccc(C(=O)NCc3ccc4c(c3)OCO4)cn2c1N(C)Cc1cccs1,< 70
17,N#Cc1ccc(-c2cnc(N)c(-c3ccc(C(N)=O)cc3)n2)cc1,< 70
18,CNc1cc(C)nc(C2CN(C(=O)c3n[nH]c4ccccc34)CCO2)c1 (centres undefined),< 70
19,CCCCCCCCCCCCCCCCOP(=O)([O-])OCC[N+](C)(C)C,< 70
20,Cc1ccc(O)c(C(=O)NCCc2ccc3c(c2)OCCO3)c1,< 70
21,O=C(Nc1nc(CN2CCOCC2)cs1)c1ccc(-c2ccc(Cl)cc2)s1,< 70
22,Cc1ccc2c(CSc3nc(N)c(C#N)cc3C#N)cc(=O)oc2c1C,< 70
23,Cc1ccc(-c2cc(C(=O)Nc3ccc(S(=O)(=O)N4CCCCC4)cc3)[nH]n2)c(O)c1,< 70
24,C=CCn1c(C)cc(C(=O)COC(=O)C(O)(c2ccccc2)c2ccccc2)c1C,< 70

row,SMILES,growth inhibition at single dose [%]
1,COc1ccc(-c2c(C)nn3c(NCc4ccccn4)cc(C)nc23)cc1OC,< 70
2,CC(NCC(=O)N1c2ccc(S(N)(=O)=O)cc2CC1C)C1CC2CCC1C2 (centres undefined),< 70
3,O=C(Nc1ccccc1-c1nc2c(C(=O)O)cccc2o1)c1ccccc1,< 70
4,COCCNC(=O)C1CCN(C(C(=O)c2c[nH]c3ccccc23)c2ccccc2)CC1 (centres undefined),< 70
5,Cc1cc(C)c2cc(C(=O)NC3CCCCCCC3)[nH]c2c1,< 70
6,Cc1ccc(Nc2nccc(C(F)(F)F)n2)cc1S(=O)(=O)N(C)C,< 70
7,CCOc1ccc(OCC(=O)Nc2cc(C)cc(C)c2)cc1,< 70
8,COc1ccc(-c2csc(NC(=O)CN3CCN(c4ncnc5c4cnn5C)CC3)n2)cc1,< 70
9,CCCCN(CCCC)S(=O)(=O)c1ccc(NC(=O)c2ccco2)cc1,< 70
10,O=C(NNc1cc(N2CCCC2)nc(N2CCCC2)n1)c1ccccc1,< 70
11,O=[N+]([O-])c1ccc(C=NNc2nc3ccccc3[nH]2)cc1,< 70
12,CCCCOC(=O)c1ccc(Nc2cc(C)nc3ccc(OC)cc23)cc1,< 70
13,O=C(NCc1ccco1)C1CCN(S(=O)(=O)c2ccc(Cl)cc2)CC1,< 70
14,CC(=O)NC[C@@H]1CN(c2ccc(N3CCOCC3)c(F)c2)C(=O)O1,< 70
15,CC(=O)Nc1nnc(SCc2c(C)cc(C(C)(C)C)cc2C)s1,< 70
16,Cc1nn(-c2ccc(F)cc2)c(Cl)c1/C=C1\C(=O)Nc2ccccc21,< 70
17,CCOC(=O)c1c(C)nn(-c2ccc(NC(=O)c3cccs3)cc2)c1C,< 70
18,CCN(CC)S(=O)(=O)c1ccc(Cl)c(C(=O)Nc2ccc3nc(C)sc3c2)c1,< 70
19,CC(C)n1nc(-c2cc3c(Cl)cccc3[nH]2)c2c(N)ncnc21,< 70
20,FC(F)(F)c1ccc(Nc2nnnc3ccccc23)cc1,< 70
21,Cc1cccnc1NC(=O)c1cccc(OCc2c(C)noc2C)c1,< 70
22,CCOc1ccc(C=Cc2nc(=O)c3ccccc3o2)cc1,< 70
23,O=C(Nc1cccc(-c2nc3ccccc3[nH]2)c1)c1cccc(NC(=O)c2ccco2)c1,< 70
24,C=CCNC(=O)C(C)Sc1nnc(-c2ccc(C)cc2)c(-c2ccc(C)cc2)n1 (centres undefined),< 70

row,SMILES,growth inhibition at single dose [%]
1,CCc1ccc([C@@H]2C[C@H](C(F)(F)F)n3ncc(C(=O)NCc4ccc(OC)cc4)c3N2)cc1,< 70
2,COc1ccc(O)c(C(=O)c2cnc3cc4c(cc3c2)OCCO4)c1,< 70
3,COc1cc(NS(=O)(=O)c2ccc(C)cc2)c(OC)cc1Cl,< 70
4,Oc1c2c(nc3cc(-c4ccccc4)nn13)CCCC2,< 70
5,COc1ccc2c(c1)CCCC21NC(=O)N(Cc2cc(=O)n3cc(C)ccc3n2)C1=O (centres undefined),< 70
6,Cc1ccc(F)cc1NC(=O)c1cc(Cl)ccc1Nc1ccccc1,< 70
7,O=C(NNc1cccc(F)n1)C(F)(F)F,< 70
8,c1ccc(Oc2ccc(-c3cc(CN4CCOCC4)[nH]n3)cc2)cc1,< 70
9,COc1ccc(C=C2SC(Nc3ccc(F)cc3)=NC2=O)c(OC)c1,< 70
10,O=C1COCc2ccc(Br)cc2N1Cc1ccc(C(F)(F)F)cc1,< 70
11,Nc1nc2ccc(-c3cncc(Oc4ccc(F)cc4)c3)cc2[nH]1,< 70
12,CCCCS(=O)(=O)Nc1ccc2cnn(C)c2c1,< 70
13,N#Cc1ccc(NC(=O)Nc2ccc(C#N)cc2)cc1,< 70
14,COc1cc(OC)cc(N2C(=O)N(Cc3ccc(C(C)(C)C)cc3)c3ccccc3S2(=O)=O)c1,< 70
15,CCOc1ccc2nc(C)cc(Nc3ccc(N(C)C)cc3)c2c1,< 70
16,CO/N=C(\C(=O)OC)c1ccccc1CO/N=C(\C)c1cccc(C(F)(F)F)c1,< 70
17,COc1ccc(S(=O)(=O)N(Cc2ccc(C(=O)NC3CC3)cc2)C2CC2)cc1OC,< 70
18,CNc1snc(C)c1C(=O)OCc1csc(-c2ccccc2)n1,< 70
19,CCCCc1c(C)nc2c(OC)cccc2c1O,< 70
20,COc1ccc2c(c1OC)C(=O)N1c3ccccc3N=C(c3ccc(C)cc3)CC21 (centres undefined),< 70
21,CC(C)(C)c1cnc(NC(=O)c2ccccc2O)s1,< 70
22,COc1ccc(CC(=O)N2CCN(C)c3nc4ccccc4nc32)cc1F,< 70
23,Cc1cc(C)cc(COc2ccc3c(C)c(CCC(=O)O)c(=O)oc3c2C)c1,< 70
24,Cn1c(=O)n(C)c2cc(CNCCNc3ccnc4cc(Cl)ccc34)ccc21,< 70

row,SMILES,growth inhibition at single dose [%]
1,FC(F)(F)c1cc(NCCc2ccccc2)nc(-c2ccccn2)n1,< 70
2,COc1ccc(S(=O)(=O)NN(C)c2nc(C(F)(F)F)nc3ccccc23)cc1,< 70
3,CC1CC(Nc2ccccc2)c2ccccc2N1S(=O)(=O)c1ccc(Br)cc1 (centres undefined),< 70
4,COc1ccc(CN=C2NN=C(c3cc4ccccc4o3)CS2)cc1,< 70
5,c1ccc2cc3c(Nc4ccc(N5CCOCC5)cc4)ccnc3cc2c1,< 70
6,COc1cccc(OC)c1C(=O)Nc1ccc(Cl)c(-c2nc3ccccc3s2)c1,< 70
7,Cc1nn(-c2ccccc2)c(Oc2ccccc2)c1/C=C1\C(=O)Nc2ccccc21,< 70
8,O=C(Nc1ccccc1C(=O)Nc1nnc(C(F)(F)F)s1)c1ccccc1,< 70
9,CCCc1c(CC)c(=N)c2ccccc2n1C,< 70
10,OC(CNC1CCCCC1)Cn1c2ccccc2c2ccccc21 (centres undefined),< 70
11,CN(C)c1ccc(C(=O)Nc2cnc3ccccc3c2)cc1,< 70
12,Cc1c(C)n(CCCO)c2ncn3nc(-c4ccc(N(C)C)cc4)nc3c12,< 70
13,NCC(=O)N1CCn2c(nc(-c3ccccc3)c2Nc2ccc3c(c2)OCO3)C1,< 70
14,Cc1cc(C(=O)COC(=O)c2[nH]nc3ccccc23)c(C)n1CC1CCCO1 (centres undefined),< 70
15,CCC(O)c1ccc(Br)cc1NC(=O)c1cccc(Cl)c1 (centres undefined),< 70
16,CC(=O)c1c(C)[nH]c(C(=O)Nc2ccc3ccccc3n2)c1C,< 70
17,CCOC(=O)c1c(C)[nH]c(C(=O)CSc2nnc(C3CC3)n2N)c1C,< 70
18,CNC(=O)c1ccc(CN(C2CC2)S(=O)(=O)c2ccc(C)cc2C)cc1,< 70
19,O=C(CN1C(=O)CSc2ccc(C(F)(F)F)cc21)Nc1ccc(Cl)cc1,< 70
20,O=C(Nc1ccc(N2CCNCC2)nc1)c1oc(-c2ccccc2)nc1C(F)(F)F,< 70
21,O=C(NCc1cc(Cl)cc(Cl)c1)c1c(C(F)(F)F)nc2ccccn12,< 70
22,Cc1cnc(NC(=O)c2ccc(C3SCCS3)cc2)s1,< 70
